This is an account of results in article PMC11995724, “Antibiotic target discovery by integrated phenotypic and activity-based profiling of electrophilic fragments” (Cell chemical biology, 2025).

Structures can show the parent of a compound that is named as a salt.

A short description of this series: in vitro. Conditions: human, hek293t cells.
Broadly, the viability is a read-out of living cells in per cent, often relative to untreated cells. `O=C(CCl)N[C@H](CO)Cc1ccccc1` [6-G20, 2-chloro-N-[(2S)-1-hydroxy-3-phenylpropan-2-yl]acetamide]: the viability at 48 h, 25 µM was 81.9%.
As for `C[C@@H](NC(=O)CCl)c1ccc(F)cc1` [6-G21, 2-chloro-N-[(1R)-1-(4-fluorophenyl)ethyl]acetamide], the viability at 48 h, 25 µM came to 129%.
The result for `O=C(CCl)NCCc1cnn(-c2ccccc2)c1` [6-G22, 2-chloro-N-[2-(1-phenyl-1H-pyrazol-4-yl)ethyl]acetamide] reads 1.31%.
To `O=C(CCl)Nc1cc(S(=O)(=O)N2CCOCC2)ccc1Cl` [6-H03, 2-chloro-N-[2-chloro-5-(morpholine-4-sulfonyl)phenyl]acetamide] belongs 1.8%.
The result for `O=C(CCl)NCCS(=O)(=O)N1CCc2ccccc21` [6-H04, 2-chloro-N-[2-(2,3-dihydro-1H-indole-1-sulfonyl)ethyl]acetamide] reads 14.1%; that for `CC1CCCN(C(=O)C(NC(=O)CCl)c2cnn(C)c2)C1` (stereo not drawn) [6-H05, 2-chloro-N-[1-(1-methyl-1H-pyrazol-4-yl)-2-(3-methylpiperidin-1-yl)-2-oxoethyl]acetamide], 104%; that for `O=C(CCl)N(Cc1ccc(Cl)c([N+](=O)[O-])c1)c1ccccc1` [6-H06, 2-chloro-N-[(4-chloro-3-nitrophenyl)methyl]-N-phenylacetamide], 0.976%.
For the molecule `Cc1ccc2[nH]c3c(c2c1)CCCC3N(C)C(=O)CCl` (stereo not drawn) [6-H07, 2-chloro-N-methyl-N-(6-methyl-2,3,4,9-tetrahydro-1H-carbazol-1-yl)acetamide], the viability at 48 h, 25 µM is 0.1%.
In the case of `O=C(CCl)NCc1cc(C(F)F)no1` [6-H08, 2-chloro-N-{[3-(difluoromethyl)-1,2-oxazol-5-yl]methyl}acetamide], the viability at 48 h, 25 µM stood at 5.77%.
The result for `CC(Cl)C(=O)N1CCCC(n2ncc(N(C)C(C)C)cc2=O)C1` (stereo not drawn) [6-H09, 2-[1-(2-chloropropanoyl)piperidin-3-yl]-5-[methyl(propan-2-yl)amino]-2,3-dihydropyridazin-3-one] reads 97.3%; that for `CC(Cl)C(=O)Nc1ccccc1Sc1ccccc1` (stereo not drawn) [6-H10, 2-chloro-N-[2-(phenylsulfanyl)phenyl]propanamide], 116%.
To `CN(CCNC(=O)CCl)S(=O)(=O)c1cccs1` [6-H11, 2-chloro-N-[2-(N-methylthiophene-2-sulfonamido)ethyl]acetamide] belongs 11.1%; to `CN(C)S(=O)(=O)c1ccc(Cl)c(NC(=O)CCl)c1` [6-H12, 2-chloro-N-[2-chloro-5-(dimethylsulfamoyl)phenyl]acetamide], 0.99%.
The result for `CC(Cl)C(=O)NC(C)c1nnc2n1CCCC2` (stereo not drawn) [6-H13, 2-chloro-N-(1-{5H,6H,7H,8H-[1,2,4]triazolo[4,3-a]pyridin-3-yl}ethyl)propanamide] reads 105%; that for `CC(Cl)C(=O)NCc1cc(C(F)F)nn1C` (stereo not drawn) [6-H14, 2-chloro-N-{[3-(difluoromethyl)-1-methyl-1H-pyrazol-5-yl]methyl}propanamide], 108%; that for `Cc1nsc(N2CCN(C(=O)C(C)Cl)CC2)c1C#N` (stereo not drawn) [6-H15, 5-[4-(2-chloropropanoyl)piperazin-1-yl]-3-methyl-1,2-thiazole-4-carbonitrile], 91.4%.
For the molecule `CCc1ccc(OC(C)C(=O)N2CCN(C(=O)C(C)Cl)CC2)cc1` (stereo not drawn) [6-H16, 1-[4-(2-chloropropanoyl)piperazin-1-yl]-2-(4-ethylphenoxy)propan-1-one], the viability at 48 h, 25 µM turned out to be 105%.
The result for `CC(Cl)C(=O)N1CCN(CCOc2ccc3c(c2)CCC3)CC1` (stereo not drawn) [6-H17, 2-chloro-1-{4-[2-(2,3-dihydro-1H-inden-5-yloxy)ethyl]piperazin-1-yl}propan-1-one] reads 3.42%; that for `CC1CC(c2ccccc2F)N(C(=O)C(C)Cl)C1` (stereo not drawn) [6-H18, 2-chloro-1-[2-(2-fluorophenyl)-4-methylpyrrolidin-1-yl]propan-1-one], 116%; that for `CC(Cl)C(=O)N1Cc2ccccc2OC(C)(C)C1` (stereo not drawn) [6-H19, 2-chloro-1-(2,2-dimethyl-2,3,4,5-tetrahydro-1,4-benzoxazepin-4-yl)propan-1-one], 91%.
Take `CC(Cl)C(=O)NCC1c2ccccc2C(=O)N1Cc1ccccc1` (stereo not drawn) [6-H20, N-[(2-benzyl-3-oxo-2,3-dihydro-1H-isoindol-1-yl)methyl]-2-chloropropanamide]: the viability at 48 h, 25 µM stood at 107%.
Consider `CC(Cl)C(=O)NC1CCC(C)(C)c2ccccc21` (stereo not drawn) [6-H21, 2-chloro-N-(4,4-dimethyl-1,2,3,4-tetrahydronaphthalen-1-yl)propanamide], for which the viability at 48 h, 25 µM worked out at 100%.
To `CC(Cl)C(=O)N1CCOCC(n2cccn2)C1` (stereo not drawn) [6-H22, 2-chloro-1-[6-(1H-pyrazol-1-yl)-1,4-oxazepan-4-yl]propan-1-one] belongs 105%; to `COc1cccc(NC(=O)C(C)Cl)c1` (stereo not drawn) [6-I03, 2-chloro-N-(3-methoxyphenyl)propanamide], 105%.
The result for `CC(Cl)C(=O)NCc1ccc(Cl)cc1` (stereo not drawn) [6-I04, 2-chloro-N-[(4-chlorophenyl)methyl]propanamide] reads 107%; that for `Cc1ccc2nc(-c3ccc(NC(=O)CCl)cc3)sc2c1` [6-I05, 2-chloro-N-[4-(6-methyl-1,3-benzothiazol-2-yl)phenyl]acetamide], 3.47%; that for `COC(=O)C1(NC(=O)CCl)CC1` [6-I06, methyl 1-(2-chloroacetamido)cyclopropane-1-carboxylate], 101%.
The result for `O=C(CCl)NCC1(c2ccccc2)CCOCC1` [6-I07, 2-chloro-N-[(4-phenyloxan-4-yl)methyl]acetamide] reads 89.3%.
Regarding `Cc1nn(-c2ccccc2)c(C)c1CNC(=O)CCl` [6-I08, 2-chloro-N-[(3,5-dimethyl-1-phenyl-1H-pyrazol-4-yl)methyl]acetamide], the viability at 48 h, 25 µM was determined as 2.35%.
The result for `N#Cc1c(NC(=O)CCl)oc(-c2cccs2)c1-c1cccs1` [6-I09, 2-chloro-N-[3-cyano-4,5-bis(thiophen-2-yl)furan-2-yl]acetamide] reads 28.5%.
For `Cc1c(Cl)cccc1NC(=O)C(C)Cl` (stereo not drawn) [6-I10, 2-chloro-N-(3-chloro-2-methylphenyl)propanamide], the viability at 48 h, 25 µM is 110%.
With `CCOC(=O)c1c(NC(=O)CCl)sc2c1CCCC2` [6-I11, ethyl 2-(2-chloroacetamido)-4,5,6,7-tetrahydro-1-benzothiophene-3-carboxylate], the viability at 48 h, 25 µM stood at 44.9%.
Regarding `N#CCCN(C(=O)CCl)c1ccccc1` [6-I12, 2-chloro-N-(2-cyanoethyl)-N-phenylacetamide], the viability at 48 h, 25 µM worked out at 1.62%.
The result for `CC(Cl)C(=O)N(C)Cc1ccccc1` (stereo not drawn) [6-I13, N-benzyl-2-chloro-N-methylpropanamide] reads 105%.
For the molecule `CC(Cl)C(=O)Nc1cc([N+](=O)[O-])ccc1Cl` (stereo not drawn) [6-I14, 2-chloro-N-(2-chloro-5-nitrophenyl)propanamide], the viability at 48 h, 25 µM came out at 117%.
To `CCn1cc(NC(=O)CCl)cn1` [6-I15, 2-chloro-N-(1-ethyl-1H-pyrazol-4-yl)acetamide hydrochloride] belongs 10.5%.
The result for `CC(C)c1ccc(CCNC(=O)CCl)cc1` [6-I16, 2-chloro-N-{2-[4-(propan-2-yl)phenyl]ethyl}acetamide] reads 71%; that for `CC(C)N(c1ccccc1)c1ccc(NC(=O)CCl)cc1` [6-I17, 2-chloro-N-{4-[phenyl(propan-2-yl)amino]phenyl}acetamide], 0.67%; that for `CC(Cl)C(=O)Nc1ncnc2[nH]cnc12` (stereo not drawn) [6-I18, 2-chloro-N-(9H-purin-6-yl)propanamide], 100%.
For `CC(C)C(NC(=O)CCl)c1ccc(F)c(C#N)c1` (stereo not drawn) [6-I19, 2-chloro-N-[1-(3-cyano-4-fluorophenyl)-2-methylpropyl]acetamide], the viability at 48 h, 25 µM came to 1.83%.
As for `O=C(CCl)Nc1oncc1-c1ccccc1` [6-I20, 2-chloro-N-(4-phenyl-1,2-oxazol-5-yl)acetamide], the viability at 48 h, 25 µM was 1.45%.
Consider `O=C(CCl)N[C@H]1CCCc2ccccc21` [6-I21, 2-chloro-N-[(1S)-1,2,3,4-tetrahydronaphthalen-1-yl]acetamide], for which the viability at 48 h, 25 µM amounted to 24%.
To `CCCc1ccc(NC(=O)CCl)cc1` [6-I22, 2-chloro-N-(4-propylphenyl)acetamide] belongs 0.417%; to `O=C(CCl)NCc1cnn(-c2ccccc2)n1` [6-J03, 2-chloro-N-[(2-phenyl-2H-1,2,3-triazol-4-yl)methyl]acetamide], 1.68%; to `Cc1ccc(NC(=O)NC(=O)C(C)Cl)c(C)c1` (stereo not drawn) [6-J04, 3-(2-chloropropanoyl)-1-(2,4-dimethylphenyl)urea], 96.6%.
The result for `Cc1cccc(CN(C(=O)CCl)C(C)C)c1` [6-J05, 2-chloro-N-[(3-methylphenyl)methyl]-N-(propan-2-yl)acetamide] reads 0.679%; that for `COc1ccccc1N=Nc1ccc(NC(=O)CCl)cc1C` [6-J06, 2-chloro-N-{4-[2-(2-methoxyphenyl)diazen-1-yl]-3-methylphenyl}acetamide], 0.765%.
To `CC(=O)N(Cc1ncc(C(C)C)o1)C1CCN(C(=O)C(C)Cl)C1` (stereo not drawn) [6-J07, N-[1-(2-chloropropanoyl)pyrrolidin-3-yl]-N-{[5-(propan-2-yl)-1,3-oxazol-2-yl]methyl}acetamide] belongs 103%.
Take `CC(Cl)C(=O)Nc1ccccc1OC(F)F` (stereo not drawn) [6-J08, 2-chloro-N-[2-(difluoromethoxy)phenyl]propanamide]: the viability at 48 h, 25 µM is 115%.
For the molecule `CC(Cl)C(=O)N(C)Cc1nccn1Cc1ccccc1` (stereo not drawn) [6-J09, N-[(1-benzyl-1H-imidazol-2-yl)methyl]-2-chloro-N-methylpropanamide], the viability at 48 h, 25 µM was found to be 91.5%.
The result for `O=C(CCl)Nc1cc(-c2ccc3c(c2)CCC3)nn1-c1ccccc1` [6-J10, 2-chloro-N-[3-(2,3-dihydro-1H-inden-5-yl)-1-phenyl-1H-pyrazol-5-yl]acetamide] reads 0.354%.
